Assay results from PubChem BioAssay (NCI).
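Test compounds were applied to cells in 96-well plates for 48 hours at 5 doses. GI50 marks 50% less growth. TGI: concentration producing complete growth inhibition.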

Key:
Test in all cases: inhibition of tumour cell growth, NCI panel, 48 h
A498 renal = system: A498 renal
CAKI-1 renal = system: CAKI-1 renal
HCT-116 colon = system: HCT-116 colon
HCT-15 colon = system: HCT-15 colon
MDA-MB-231 breast = system: MDA-MB-231 breast
MOLT-4 leukemia = system: MOLT-4 leukemia
SF-268 CNS = system: SF-268 CNS
SK-OV-3 ovarian = system: SK-OV-3 ovarian
U251 CNS = system: U251 CNS
UACC-257 melanoma = system: UACC-257 melanoma

SMILES	GI50 (A498 renal)	TGI (A498 renal)	GI50 (CAKI-1 renal)	TGI (CAKI-1 renal)	GI50 (HCT-116 colon)	TGI (HCT-116 colon)	GI50 (HCT-15 colon)	TGI (HCT-15 colon)	GI50 (MDA-MB-231 breast)	TGI (MDA-MB-231 breast)	GI50 (MOLT-4 leukemia)	TGI (MOLT-4 leukemia)	GI50 (SF-268 CNS)	TGI (SF-268 CNS)	GI50 (SK-OV-3 ovarian)	TGI (SK-OV-3 ovarian)	GI50 (U251 CNS)	TGI (U251 CNS)	GI50 (UACC-257 melanoma)	TGI (UACC-257 melanoma)
C[CH2][Sn]([CH2]C)([O]C(=O)c1ccc(OC)c(OC)c1OC)[O]C(=O)c1ccc(OC)c(OC)c1OC	16.3 µM	44 µM	14.7 µM	30.6 µM	> 100 µM	> 100 µM	61.2 µM	> 100 µM	59.1 µM	> 100 µM	34.1 µM	> 100 µM	28 µM	> 46.4 µM	> 100 µM	> 100 µM	> 75.8 µM	> 100 µM	> 78.9 µM	> 100 µM
CCCCCC[C@H](C)NC(=O)c1ccc(Nc2nc3ccccc3c3occc23)cc1	2.74 µM	7.54 µM	3.97 µM	50.5 µM	2.14 µM	6.43 µM	8.42 µM	33 µM	12.6 µM	51.8 µM	3.4 µM	> 100 µM	6.39 µM	> 100 µM	5.11 µM	> 100 µM	19 µM	> 100 µM	2.64 µM	6.17 µM
C=C1C(=O)O[C@H]2[C@H]1CC/C(COC(=O)NCCCCCCCCNC(=O)OC/C1=C/CC[C@@]3(C)O[C@H]3[C@H]3OC(=O)C(=C)[C@@H]3CC1)=C\CC[C@@]1(C)O[C@@H]21	1.69 µM	3.14 µM	0.657 µM	2.02 µM	0.198 µM	0.407 µM	0.346 µM	1.41 µM	0.2 µM	0.458 µM	0.33 µM	1.18 µM	0.999 µM	2.69 µM	3.64 µM	12.3 µM	0.578 µM	2 µM	0.848 µM	2.82 µM
C#Cc1cccc(NC(=O)c2ccc(NC(=O)CCl)cc2)c1	> 82.5 µM	> 82.5 µM	> 82.5 µM	> 82.5 µM	11.9 µM	36.3 µM	9.95 µM	25 µM	24 µM	> 82.5 µM	12.4 µM	40 µM	18.7 µM	> 82.5 µM	> 82.5 µM	> 82.5 µM	14.9 µM	34.8 µM	> 82.5 µM	> 82.5 µM
FC(F)(F)c1cc(Nc2ccc3cc(OCCCN4CCOCC4)ccc3n2)ccc1Cl	1.47 µM	6.27 µM	1.66 µM	3.44 µM	1.65 µM	3.14 µM	1.28 µM	3.08 µM	1.83 µM	4.2 µM	2.16 µM	6.82 µM	1.9 µM	4.71 µM	2.21 µM	4.87 µM	1.27 µM	2.75 µM	1.53 µM	3.32 µM
CCN(Cc1ccc(F)cc1)c1ccc(CO)c(OC)c1	0.331 µM	1.37 µM	4.69 µM	33.3 µM	10 µM	28.2 µM	14.6 µM	41 µM	23.1 µM	> 88.5 µM	20.1 µM	72.4 µM	22.1 µM	> 65.4 µM	15.3 µM	> 94.6 µM	22.1 µM	99.3 µM	8.85 µM	42.7 µM
COCc1c(-c2ccc(NC(=O)Nc3cc(C(F)(F)F)ccc3F)c(F)c2)c2c(N)ncnn2c1CN1CCOCC1	0.0166 µM	0.248 µM	1.9 µM	> 10 µM	1.7 µM	> 10 µM	1.74 µM	> 10 µM	1.91 µM	> 10 µM	2.07 µM	9.8 µM	1.13 µM	5.2 µM	1.61 µM	6.88 µM	2.56 µM	> 10 µM	3.43 µM	> 10 µM
COc1ccc(N(C)c2nc(Cl)nc3cnn(C)c23)cc1	< 0.01 µM	0.178 µM	< 0.01 µM	> 100 µM	< 0.01 µM	> 100 µM	< 0.01 µM	> 100 µM	0.0262 µM	> 100 µM	0.0193 µM	> 100 µM	< 0.0112 µM	> 100 µM	< 0.01 µM	> 100 µM	< 0.01 µM	> 100 µM	29.8 µM	> 100 µM
Cc1ccc(S(=O)(=O)Nc2ccc(-c3cc(-c4cccc(F)c4)c(C#N)c(N)n3)cc2)cc1	3.7 µM	16.2 µM	1.6 µM	3.16 µM	1.69 µM	3.23 µM	1.88 µM	4.86 µM	1.95 µM	4.6 µM	3.2 µM	30.2 µM	2.97 µM	12.8 µM	8.92 µM	23.3 µM	2.75 µM	9.62 µM	1.93 µM	4.24 µM
N#CC1C(=O)NC(c2ccccc2[N+](=O)[O-])c2sc3c(F)cccc3c21 (stereo not drawn)	0.561 µM	2.06 µM	0.242 µM	5.43 µM	0.138 µM	11.9 µM	10.4 µM	61.2 µM	8.53 µM	54.8 µM	15.4 µM	> 73 µM	15.8 µM	56.9 µM	10.1 µM	62.3 µM	1.16 µM	62.6 µM	0.961 µM	4.72 µM
Nc1ncnc2c1ccn2[C@@H]1O[C@H]([C@H](O)c2ccc(Cl)c(F)c2)[C@@H](O)[C@H]1O	52.4 µM	> 100 µM	> 100 µM	> 100 µM	> 100 µM	> 100 µM	> 100 µM	> 100 µM	> 100 µM	> 100 µM	> 100 µM	> 100 µM	> 100 µM	> 100 µM	> 100 µM	> 100 µM	> 100 µM	> 100 µM	> 100 µM	> 100 µM
C/C(=N/N=C(N)N)c1ccc(NC(=O)Nc2ccc(/C(C)=N/N=C(N)N)cc2)cc1	23.5 µM	69.9 µM	22.4 µM	> 100 µM	28 µM	> 100 µM	25.5 µM	> 77.6 µM	20 µM	71.2 µM	25.7 µM	> 100 µM	17.2 µM	> 71.2 µM	36.3 µM	> 82.3 µM	7.94 µM	24.3 µM	31.1 µM	> 89.6 µM
O=C1NC(c2cccc(OCc3ccccc3)c2)Nc2ccccc21 (stereo not drawn)		4.68 µM		> 32.8 µM		1.93 µM		0.702 µM		4.69 µM		2.77 µM		> 51 µM		5.87 µM		4.25 µM		50.7 µM
Cn1c2ccccc2c2c(=O)n(CCCC(=O)OC(=NC3CCCCC3)NC3CCCCC3)c3c(-c4ccccc4)nnn3c21	65.8 µM	> 100 µM	> 100 µM	> 100 µM	91.8 µM	> 100 µM	> 100 µM	> 100 µM	71.7 µM	> 100 µM	> 100 µM	> 100 µM	98.2 µM	> 100 µM	> 100 µM	> 100 µM	> 100 µM	> 100 µM	> 100 µM	> 100 µM
O=c1c(Cl)cc2nc3ccccc3sc-2c1Cl		80.7 µM		37.8 µM		32.5 µM		32.3 µM		21.3 µM		> 100 µM		28.5 µM		39 µM		43.2 µM		8.2 µM
O=C1C=CC2(C=C1)C[C@H](NC(=O)OCc1ccccc1)C(=O)O2		> 100 µM		34.8 µM		40.3 µM		27 µM		32.6 µM		15.3 µM		32.3 µM		> 92.3 µM		37.1 µM		33.2 µM
COC(=O)[C@]12CC[C@@H](C)[C@H](C)[C@@H]1C1=CC[C@@H]3[C@@]4(C)C(C=O)=C[C@@](C)(COC(=O)/C=C/c5ccccc5)[C@@H]4[C@H](O)C[C@@]3(C)[C@]1(C)CC2	4.8 µM	23.7 µM	3.56 µM	> 100 µM	3.06 µM	13.7 µM	2.2 µM	5.36 µM	4.36 µM	27.2 µM	2.09 µM	7.36 µM	3.43 µM	48.3 µM	16.5 µM	97.9 µM	3.75 µM	16.2 µM	2.36 µM	6.82 µM
O=[N+]([O-])c1ccc(Sc2ccncn2)c([N+](=O)[O-])c1	8.71 µM	22.7 µM	0.602 µM	1.93 µM	0.726 µM	2 µM	3.07 µM	9.93 µM	7.79 µM	20.8 µM	0.939 µM	4.24 µM	2.75 µM	10.2 µM	8.64 µM	21.7 µM	5.47 µM	17.8 µM	2.81 µM	9.37 µM
CC1=C([Se]CC(OC(=O)[C@@H](CO)NC(=O)OC(C)(C)C)C(=O)NCCCCCC(=O)OCc2ccccc2)C(=O)c2ccccc2C1=O (stereo partly drawn)	2.02 µM	5.93 µM	1.8 µM	3.32 µM	1.39 µM	2.73 µM	1.93 µM	3.77 µM	1.68 µM	3.19 µM	1.39 µM	4.93 µM	1.85 µM	3.27 µM	1.28 µM	2.56 µM	0.94 µM	2.17 µM		
